# pEC50: −log10 of the molar value.
# Target: human α7 nAChR (Homo sapiens (Human), UniProt P36544)
# Experiment: Automated patch-clamp electrophysiology functional assay (Assay A)
# Assay type: cell-based
# Settings: IonFlux HT whole-cell population patch, HEK cells expressing human α7/RIC-3, 40 μM acetylcholine
# Procedure, shortened: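 Whole-cell population patch clamp on HEK cells stably co-expressing human α7 and RIC-3, held at −60 mV, room temperature. Compounds tested at three ascending concentrations per recording with or without 40 μM acetylcholine; currents normalized to the 40 μM acetylcholine-evoked reference response to give agonist and potentiation EC50.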
# Sequence of human α7 nAChR (P36544 23-502): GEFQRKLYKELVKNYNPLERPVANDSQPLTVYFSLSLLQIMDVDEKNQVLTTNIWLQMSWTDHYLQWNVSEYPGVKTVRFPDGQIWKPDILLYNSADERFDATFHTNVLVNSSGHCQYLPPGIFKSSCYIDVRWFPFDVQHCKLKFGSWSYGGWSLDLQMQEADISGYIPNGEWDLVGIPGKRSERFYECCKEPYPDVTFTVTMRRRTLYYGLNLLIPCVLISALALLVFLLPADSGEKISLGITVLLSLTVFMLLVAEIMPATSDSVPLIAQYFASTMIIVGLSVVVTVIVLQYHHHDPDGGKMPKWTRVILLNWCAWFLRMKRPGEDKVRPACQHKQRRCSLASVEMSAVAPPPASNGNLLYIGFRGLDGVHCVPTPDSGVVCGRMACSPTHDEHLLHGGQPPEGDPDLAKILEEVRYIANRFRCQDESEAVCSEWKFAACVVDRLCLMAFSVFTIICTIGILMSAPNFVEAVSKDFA
Compound,pEC50 (electrophysiology EC50 values),pEC50 (potency class)
"O=C(NCc1cccs1)C1C2Oc3ccc(F)cc3C21 (stereo not drawn) [Example C17, exo-5-fluoro-N-[(thiophen-2-yl)methyl]-1a,6b-dihydro-1H-cyclopropa[b][1]benzofuran-1-carboxamide]",6.01,5.30 to 6.30
"O=C(NCc1cccc(N2CCCC2)n1)C1C2Oc3ccc(F)cc3C21 (stereo not drawn) [Example C18, 2-{[(exo-5-fluoro-1a,6b-dihydro-1H-cyclopropa[b][1]benzofuran-1-carbonyl)amino]methyl}-6-(pyrrolidin-1-yl)pyridine]",5.85,5.30 to 6.30
"O=C(NCc1cc(C(F)F)nc(C(F)F)c1)C1C2Oc3ccc(F)cc3C21 (stereo not drawn) [Example C19, exo-N-{[2,6-bis(difluoromethyl)pyridin-4-yl]methyl}-5-fluoro-1a,6b-dihydro-1H-cyclopropa[b][1]benzofuran-1-carboxamide]",6.22,5.30 to 6.30
"O=C(NCc1cccc(I)c1)C1C2Oc3ccc(F)cc3C21 (stereo not drawn) [Example C21, exo-5-fluoro-N-[(3-iodophenyl)methyl]-1a,6b-dihydro-1H-cyclopropa[b][1]benzofuran-1-carboxamide]",5.68,5.30 to 6.30
"Cc1cc(F)cc(CNC(=O)C2C3Oc4ccc(F)cc4C32)c1 (stereo not drawn) [Example C24, exo-5-fluoro-N-[(3-fluoro-5-methylphenyl)methyl]-1a,6b-dihydro-1H-cyclopropa[b][1]benzofuran-1-carboxamide]",6.02,5.30 to 6.30
"O=C(NCc1ccc2ncccc2c1)C1C2Oc3ccc(F)cc3C21 (stereo not drawn) [Example C27, 6-{[(exo-5-fluoro-1a,6b-dihydro-1H-cyclopropa[b][1]benzofuran-1-carbonyl)amino]methyl}quinoline]",5.70,5.30 to 6.30
"Cc1ccccc1CNC(=O)C1C2Oc3ccc(F)cc3C21 (stereo not drawn) [Example C31, exo-5-fluoro-N-[(2-methylphenyl)methyl]-1a,6b-dihydro-1H-cyclopropa[b][1]benzofuran-1-carboxamide]",5.74,5.30 to 6.30
"O=C(NCc1n[nH]c2c1CCCCC2)[C@H]1[C@@H]2Oc3ccc(F)cc3[C@@H]21 [Example C33, 3-{[(exo-5-fluoro-1a,6b-dihydro-1H-cyclopropa[b][1]benzofuran-1-carbonyl)amino]methyl}-1,4,5,6,7,8-hexahydrocyclohepta[c]pyrazole]",–,5.30 to 6.30
"O=C(NCc1ccc(Oc2ccccn2)cc1)C1C2Oc3ccc(F)cc3C21 (stereo not drawn) [Example C34, exo-5-fluoro-N-({4-[(pyridin-2-yl)oxy]phenyl}methyl)-1a,6b-dihydro-1H-cyclopropa[b][1]benzofuran-1-carboxamide]",6.09,5.30 to 6.30
"O=C(NCc1cccc(-c2ncco2)c1)C1C2Oc3ccc(F)cc3C21 (stereo not drawn) [Example C35, exo-5-fluoro-N-{[3-(1,3-oxazol-2-yl)phenyl]methyl}-1a,6b-dihydro-1H-cyclopropa[b][1]benzofuran-1-carboxamide]",5.62,5.30 to 6.30
"C[C@H](NC(=O)C1C2Oc3ccc(F)cc3C21)c1cccc2ncccc12 (stereo partly drawn) [Example C36, 5-{(1S)-1-[(exo-5-fluoro-1a,6b-dihydro-1H-cyclopropa[b][1]benzofuran-1-carbonyl)amino]ethyl}quinoline]",5.89,5.30 to 6.30
"CC(NC(=O)C1C2Oc3ccc(F)cc3C21)c1ccc(Br)cc1 (stereo not drawn) [Example C37, exo-N-[1-(4-bromophenyl)ethyl]-5-fluoro-1a,6b-dihydro-1H-cyclopropa[b][1]benzofuran-1-carboxamide]",5.74,5.30 to 6.30
"O=C(NCc1ccc2cnccc2c1)C1C2Oc3ccc(F)cc3C21 (stereo not drawn) [Example C38, 6-{[(exo-5-fluoro-1a,6b-dihydro-1H-cyclopropa[b][1]benzofuran-1-carbonyl)amino]methyl}isoquinoline]",5.33,5.30 to 6.30
"O=C(NC(c1ccccc1)c1ccncc1)[C@@H]1[C@H]2Oc3ccc(F)cc3[C@H]21 (stereo partly drawn) [Example C39, 4-{[(exo-5-fluoro-1a,6b-dihydro-1H-cyclopropa[b][1]benzofuran-1-carbonyl)amino](phenyl)methyl}pyridine]",–,5.30 to 6.30
"O=C(NCc1nc(Br)no1)C1C2Oc3ccc(F)cc3C21 (stereo not drawn) [Example C41, exo-N-[(3-bromo-1,2,4-oxadiazol-5-yl)methyl]-5-fluoro-1a,6b-dihydro-1H-cyclopropa[b][1]benzofuran-1-carboxamide]",–,5.30 to 6.30
"O=C(NCc1nc(Cc2ccccc2)no1)C1C2Oc3ccc(F)cc3C21 (stereo not drawn) [Example C42, exo-N-[(3-benzyl-1,2,4-oxadiazol-5-yl)methyl]-5-fluoro-1a,6b-dihydro-1H-cyclopropa[b][1]benzofuran-1-carboxamide]",5.18,4.30 to 5.30
"O=C(NCc1cc(-c2ccccn2)no1)C1C2Oc3ccc(F)cc3C21 (stereo not drawn) [Example C46, exo-5-fluoro-N-{[3-(pyridin-2-yl)-1,2-oxazol-5-yl]methyl}-1a,6b-dihydro-1H-cyclopropa[b][1]benzofuran-1-carboxamide]",6.28,5.30 to 6.30
"O=C(NCc1cc(Br)no1)C1C2Oc3ccc(F)cc3C21 (stereo not drawn) [Example C47, exo-N-[(3-bromo-1,2-oxazol-5-yl)methyl]-5-fluoro-1a,6b-dihydro-1H-cyclopropa[b][1]benzofuran-1-carboxamide]",–,5.30 to 6.30
"O=C(NCc1noc(-c2ccccc2)n1)C1C2Oc3ccc(F)cc3C21 (stereo not drawn) [Example C49, exo-5-fluoro-N-[(5-phenyl-1,2,4-oxadiazol-3-yl)methyl]-1a,6b-dihydro-1H-cyclopropa[b][1]benzofuran-1-carboxamide]",6.57,6.30 to 7.00
"O=C(NCc1nnc(-c2ccccc2)o1)C1C2Oc3ccc(F)cc3C21 (stereo not drawn) [Example C50, exo-5-fluoro-N-[(5-phenyl-1,3,4-oxadiazol-2-yl)methyl]-1a,6b-dihydro-1H-cyclopropa[b][1]benzofuran-1-carboxamide]",6.32,6.30 to 7.00

# Other lines, results leading:
pEC50 (electrophysiology EC50 values),pEC50 (potency class),Compound
5.64,5.30 to 6.30,"CC(NC(=O)C1C2Oc3ccc(F)cc3C21)c1cc2ccccc2o1 (stereo not drawn) [Example C20, exo-N-[1-(1-benzofuran-2-yl)ethyl]-5-fluoro-1a,6b-dihydro-1H-cyclopropa[b][1]benzofuran-1-carboxamide]"
5.47,5.30 to 6.30,"O=C(NCc1cc(F)ccc1F)C1C2Oc3ccc(F)cc3C21 (stereo not drawn) [Example C22, exo-N-[(2,5-difluorophenyl)methyl]-5-fluoro-1a,6b-dihydro-1H-cyclopropa[b][1]benzofuran-1-carboxamide]"
5.64,5.30 to 6.30,"O=C(NCc1ccc(F)cc1F)C1C2Oc3ccc(F)cc3C21 (stereo not drawn) [Example C23, exo-N-[(2,4-difluorophenyl)methyl]-5-fluoro-1a,6b-dihydro-H-cyclopropa[b][1]benzofuran-1-carboxamide]"
6.07,5.30 to 6.30,"O=C(NCc1ccc(-n2cccc2)cc1)C1C2Oc3ccc(F)cc3C21 (stereo not drawn) [Example C25, exo-5-fluoro-N-{[4-(1H-pyrrol-1-yl)phenyl]methyl}-1a,6b-dihydro-1H-cyclopropa[b][1]benzofuran-1-carboxamide]"
6.17,5.30 to 6.30,"O=C(NCc1ccc(O)cc1)C1C2Oc3ccc(F)cc3C21 (stereo not drawn) [Example C26, exo-5-fluoro-N-[(4-hydroxyphenyl)methyl]-1a,6b-dihydro-1H-cyclopropa[b][1]benzofuran-1-carboxamide]"
–,5.30 to 6.30,"O=C(NCc1nc2ccccc2s1)C1C2Oc3ccc(F)cc3C21 (stereo not drawn) [Example C28, 2-{[(exo-5-fluoro-1a,6b-dihydro-1H-cyclopropa[b][1]benzofuran-1-carbonyl)amino]methyl}-1,3-benzothiazole]"
5.74,5.30 to 6.30,"COC(=O)C(NC(=O)C1C2Oc3ccc(F)cc3C21)c1cccc(Cl)c1 (stereo not drawn) [Example C29, methyl 2-(3-chlorophenyl)-2-[(exo-5-fluoro-1a,6b-dihydro-1H-cyclopropa[b][1]benzofuran-1-carbonyl)amino]acetate]"
5.55,5.30 to 6.30,"O=C(N[C@@H](CCO)c1ccc(F)cc1)C1C2Oc3ccc(F)cc3C21 (stereo partly drawn) [Example C30, exo-5-fluoro-N-[(1S)-1-(4-fluorophenyl)-3-hydroxypropyl]-1a,6b-dihydro-1H-cyclopropa[b][1]benzofuran-1-carboxamide]"
6.72,6.30 to 7.00,"O=C(NCc1cc(-c2ccccc2)no1)C1C2Oc3ccc(F)cc3C21 (stereo not drawn) [Example C32, exo-5-fluoro-N-[(3-phenyl-1,2-oxazol-5-yl)methyl]-1a,6b-dihydro-1H-cyclopropa[b][1]benzofuran-1-carboxamide]"
6.21,5.30 to 6.30,"O=C(NCc1ccccc1OCC1CC1)C1C2Oc3ccc(F)cc3C21 (stereo not drawn) [Example C40, exo-N-{[2-(cyclopropylmethoxy)phenyl]methyl}-5-fluoro-1a,6b-dihydro-1H-cyclopropa[b][1]benzofuran-1-carboxamide]"
5.72,5.30 to 6.30,"CC(NC(=O)C1C2Oc3ccc(F)cc3C21)c1ccno1 (stereo not drawn) [Example C43, exo-5-fluoro-N-[1-(1,2-oxazol-5-yl)ethyl]-1a,6b-dihydro-1H-cyclopropa[b][1]benzofuran-1-carboxamide]"
–,4.30 to 5.30,"COc1ccc(-c2cc(CNC(=O)C3C4Oc5ccc(F)cc5C43)on2)cc1 (stereo not drawn) [Example C44, exo-5-fluoro-N-{[3-(4-methoxyphenyl)-1,2-oxazol-5-yl]methyl}-1a,6b-dihydro-1H-cyclopropa[b][1]benzofuran-1-carboxamide]"
–,4.30 to 5.30,"COc1cc(CNC(=O)C2C3Oc4ccc(F)cc4C32)on1 (stereo not drawn) [Example C45, exo-5-fluoro-N-[(3-methoxy-1,2-oxazol-5-yl)methyl]-1a,6b-dihydro-1H-cyclopropa[b][1]benzofuran-1-carboxamide]"
6.26,5.30 to 6.30,"O=C(NCc1cc(-c2ccccc2)no1)C1C2Oc3ccc(F)cc3C21 (stereo not drawn) [Example C48, exo-5-fluoro-N-[(3-phenyl-1,2-oxazol-5-yl)methyl]-1a,6b-dihydro-1H-cyclopropa[b][1]benzofuran-1-carboxamide]"

# Reference: patent US20240368109A1, “ALLOSTERIC MODULATORS OF NICOTINIC ACETYLCHOLINE RECEPTORS” (MERCK SHARP & DOHME LLC, priority 2021, published 2024)
